This note sets out measurements from publication PMC4279406, “Simultaneous targeting of PI3Kδ and a PI3Kδ-dependent MEK1/2-Erk1/2 pathway for therapy in pediatric B-cell acute lymphoblastic leukemia” (Oncotarget, 2014).

Where two headings read alike, the source gives them in different places.

The IC50 is the concentration that gives 50% inhibition.

Holding throughout (experiment): Akt phosphorylation in isogenic Rh30-Myr-p110 cells (Western blot)
Common to all, as to format: cell-based
Holding throughout (conditions): Homo sapiens, serum-free 12 h, compound 1 h, band intensity, mean of three experiments
For orientation: A western blot detects proteins with antibodies after separation by electrophoresis.

Experiment [1] concerns Rh30-Myr-p110α cells. The text has this:
(§1) To assess the selectivity of X-370 in the context of an isogenic cellular background, we generated a panel of Rh30 human rhabdomyosarcoma cell lines each of which stably expresses a single myristoylated (Myr)-epitope tagged p110 human class I PI3K catalytic subunit, termed as Rh30-Myr-p110α, Rh30-Myr-p110β, Rh30-Myr-p110γ or Rh30-Myr-p110δ. In these cells, endogenous PI3K is not activated under serum-free culture conditions, whereas the ectopically expressed p110 isoforms are membrane-anchored and constitutively active due to myristoylation at N-terminal. Utilizing this cell panel, isoform-specific PI3K activity can be determined for any given inhibitor[25]. These cells were treated with X-370 and phosphorylated Akt was detected as the readout of PI3K activity. X-370 inhibited phosphorylation of Akt at both Thr308 and Ser473 in a dose-dependent manner in four tested cell lines (Figure 2A). […] Similar property was also observed in CAL-101 (Figure S2).
(§2) Cell lysates were probed with indicated antibodies. The IC50 values were calculated based on relative band intensity measured with ImageQuant™ TL (GE Healthcare Life Sciences, Piscataway, NJ) (B). Data shown are mean values from three independent experiments. (C, D, E, F) X-370 blocked stimuli-triggered PI3Kδ activation. MEF cells and THP-1 were starved in serum-free medium for 12 h or 4 h respectively and X-370 were added for an additional 1 h treatment following stimulation of IGF-1 at 100 ng/ml for MEF cells (C), LPA at 10 μM for MEF cells (D), MCP-1 at 100ng/ml for THP-1 (E) and M-CSF at 50 ng/ml for THP-1 (F). Similar results were derived from 3 independent experiments. TEXT PRINTED IN THE PICTURE: (B) X-370: IC50 (μM) in Rh30-Myr-p110s, Akt pT308, PI3Kα: 0.68; IC50 (μM) in Rh30-Myr-p110s, Akt pT308, PI3Kβ: 0.4; IC50 (μM) in Rh30-Myr-p110s, Akt pT308, PI3Kγ: 0.46; IC50 (μM) in Rh30-Myr-p110s, Akt pT308, PI3Kδ: 0.032; IC50 (μM) in Rh30-Myr-p110s, Akt pS473, PI3Kα: 0.53; IC50 (μM) in Rh30-Myr-p110s, Akt pS473, PI3Kβ: 0.29; IC50 (μM) in Rh30-Myr-p110s, Akt pS473, PI3Kγ: 0.23; IC50 (μM) in Rh30-Myr-p110s, Akt pS473, PI3Kδ: 0.02 DOUBTS OF THE COPYIST ABOUT THIS PICTURE: Panel B prints no substance label in the table itself; the label X-370 is taken from the other panels of the same picture, where it is the only substance printed. […]
(§3) Cells were treated as indicated conditions and then subjected to lysate to perform standard Western blot as described previously1. Briefly, whole-cell lysates and SDS-loading buffer diluted cell fractions were analyzed on SDS-PAGE gels. Transfer to nitrocellulose membranes, nonfat milk blocking, probing with indicated primary antibodies and the corresponding HRP-conjugated second antibodies.
(§4) Chemiluminescence were performed and captured using ImageQuant LAS 4000 (GE healthcare Life Sciences, Piscataway, NJ, USA) and band intensity was measure both with ImageQuant™ TL (GE Healthcare Life Sciences) 2. […]
(§5) (also on this page, place not known: PI3Kδ -dependent MEK1/2 - B -cell previously 1. whole -cell SDS -loading SDS -PAGE HRP -conjugated (G E A B Val828 Trp760 Thr750 Met752 Tyr813 affinity pocket specificity pocket hinge Glu826 CAL-101 X-370) […]
(§6) (1 picture or pasted object on this page, not shown here)

In experiment [2] the test system is Rh30-Myr-p110γ cells.
Text: as §1, §2, §3, §4, §5, §6

For experiment [3], the system named is Rh30-Myr-p110β cells.
Text: as §1, §2, §3, §4, §5, §6

In the case of `O=C(N1CCCC1)N1CCC(n2cnc3c(-n4c(C(F)F)nc5ccccc54)nc(N4CCOCC4)nc32)CC1` [X-370], the IC50 in experiment [1] (read-out: IC50 (μM) in Rh30-Myr-p110s, Akt pS473, PI3Kα) was 0.53 µM; in experiment [1] (read-out: IC50 (μM) in Rh30-Myr-p110s, Akt pT308, PI3Kα), 0.68 µM; in experiment [2] (read-out: IC50 (μM) in Rh30-Myr-p110s, Akt pS473, PI3Kγ) it was 0.23 µM; in experiment [2] (read-out: IC50 (μM) in Rh30-Myr-p110s, Akt pT308, PI3Kγ) it was 0.46 µM; in experiment [3] (read-out: IC50 (μM) in Rh30-Myr-p110s, Akt pS473, PI3Kβ), 0.29 µM; in experiment [3] (read-out: IC50 (μM) in Rh30-Myr-p110s, Akt pT308, PI3Kβ) it was 0.4 µM.
